“Also recorded” adds a separate entry of the source. Where a SMILES comes first, the peptide text is derived from it.
Assays:
[1] = molecular target: T1, adenylyl cyclase, ROS 17/2 cells (Rattus norvegicus, UniProt P25961); experiment: Adenylyl cyclase stimulation, [3H]-cyclic AMP production in ROS 17/2 cells; type: cell-based
T1 sequence (P25961 27-591): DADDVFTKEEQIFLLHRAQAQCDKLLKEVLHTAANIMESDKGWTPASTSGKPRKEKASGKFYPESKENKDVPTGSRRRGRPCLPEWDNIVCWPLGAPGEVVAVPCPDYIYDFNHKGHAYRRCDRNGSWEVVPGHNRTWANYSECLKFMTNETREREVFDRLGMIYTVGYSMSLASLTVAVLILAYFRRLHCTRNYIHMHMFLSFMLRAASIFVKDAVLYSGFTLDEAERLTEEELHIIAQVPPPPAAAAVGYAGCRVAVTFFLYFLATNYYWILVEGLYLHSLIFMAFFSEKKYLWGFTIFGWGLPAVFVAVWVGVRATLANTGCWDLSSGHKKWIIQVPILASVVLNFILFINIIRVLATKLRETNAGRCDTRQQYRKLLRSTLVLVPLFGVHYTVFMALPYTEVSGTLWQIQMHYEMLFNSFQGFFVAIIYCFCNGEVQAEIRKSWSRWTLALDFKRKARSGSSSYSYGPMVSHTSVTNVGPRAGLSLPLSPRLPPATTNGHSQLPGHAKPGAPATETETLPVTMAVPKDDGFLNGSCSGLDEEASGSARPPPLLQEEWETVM

[2] = system: ovariectomized (OVX) Sprague-Dawley rats; experiment: Anabolic activity in ovariectomized rat model, injections from 2nd to 8th week after OVX; type: in vivo; conditions: subcutaneously injected
Text: A full description of the protocol is given in Rixon et al, J. Bone & Mineral Research 9, 1179-1189, 1994 and Whitfield et al Calcif. Tissue Int. 58, 81-87, 1996 incorporated herein by reference. Normal, Sham-OVX (ovariectomized), and OVX Sprague-Dawley rats (3 months-old; 255-260 g) were purchased from
Charles River Laboratories (St. Constant, QC). The rats were randomized into groups of 8 animals which received Purina rat chow and water ad libitum. There were no unscheduled deaths. The animals received 6, once-daily subcutaneous injections/week starting at the end of the second week after OVX, and ending at the end of the 8th week after OVX (i.e., 36 injections). Eight Sham-OVX and 8 OVX controls rats received 36 injections of vehicle (0.15 M NaCl containing 0.001N HCl) while 8 OVX rats received 0.6 nmole of fragment in vehicle/100 g of body weight). At the end of the 8th week after OVX, femurs were removed isolated, cleaned, and cut in half at mid-diaphysis and the proximal half was discarded. After removing the epiphysis, each half-femur was split lengthwise into two parts and the bone marrow was flushed out.
The bone-building potencies of the fragments were assessed from the changes in the mean thicknesses (area/perimeter) of the trabeculae in the distal half-femurs from the variously treated animals. To measure mean trabecular thickness, the two demineralized half-femurs from each rat were dehydrated and embedded in paraffin. Longitudinal, 10-μm sections from the middle plane of each bone were cut and then strained with Sanderson's rapid bone stain (Surgipath Medical Industries, Inc., Winnipeg, MB, Canada). The mean trabecular thickness was measured using a M4 imaging system and bone morphometric software from Imaging Research Inc., (St. Catherines, ON, Canada).
The results are further presented in the form of a bar graph in FIG. 7.

[3] = system: anesthetized female Sprague-Dawley rats; experiment: Hypotensive effect, tail artery pressure in anaesthetized rats; conditions: for time to reduction of tail artery pressure: injection into a femoral vein
[4] = intravenous, 0.8 nmol/100 g of body weight

Molecule | AC-stimulating activity, comparison in words [1] | osteogenic activity, in words [2] | time to reduction of tail artery pressure [3] | hypotensive action, in words ([3]; intravenous injection) | hypotensive action, in words ([3]; subcutaneous injection) | time for tail artery pressure to fall to its minimum ([3]; subcutaneous injection) | total blood pressure drop versus other analogues ([3]; subcutaneously or intravenously, 0.8 nmol/100 g of body weight) | reduction of tail artery pressure [3, 4] [mm Hg] | time to maximum drop in tail artery pressure [3, 4] [min]
CC[C@H](C)[C@H](NC(=O)[C@H](CCC(=O)O)NC(=O)[C@H](CO)NC(=O)[C@@H](NC(=O)[C@@H](N)CO)C(C)C)C(=O)N[C@@H](CCC(N)=O)C(=O)N[C@@H](CC(C)C)C(=O)N[C@@H](CCSC)C(=O)N[C@@H](Cc1c[nH]cn1)C(=O)N[C@@H](CC(N)=O)C(=O)N[C@@H](CC(C)C)C(=O)NCC(=O)N[C@@H](CCCCN)C(=O)N[C@@H](Cc1c[nH]cn1)C(=O)N[C@@H](CC(C)C)C(=O)N[C@@H](CC(N)=O)C(=O)N[C@@H](CO)C(=O)N[C@@H](CCSC)C(=O)N[C@@H](CCC(=O)O)C(=O)N[C@@H](CCCNC(=N)N)C(=O)N[C@H](C(=O)N[C@@H](CCC(=O)O)C(=O)N[C@@H](Cc1c[nH]c2ccccc12)C(=O)N[C@@H](CC(C)C)C(=O)N[C@@H](CCCNC(=N)N)C(=O)N[C@@H](CCCCN)C(=O)N[C@@H](CCCCN)C(=O)N[C@@H](CC(C)C)C(=O)N[C@@H](CCC(N)=O)C(=O)N[C@@H](CC(=O)O)C(N)=O)C(C)C [peptide 6, hPTH-(1-30)-NH2] (H-SVSEIQLMHNLGKHLNSMERVEWLRKKLQD-NH2) | stimulates AC almost as strongly as hPTH-(1-31)-NH and hPTH-(1-34) | does not stimulate bone formation | about 1 minute | potently hypotensive | reduces blood pressure as much as hPTH-(1-31)-NH2 | 13.8 ± 2.3 min | not significantly different (p>0.05) |  | 
hPTH-(1-84) (protein, UniProt P01270 32-115, looked up, Parathyroid hormone, full-length human parathyroid hormone, AC/PLC-stimulating) Parathyroid hormone: SVSEIQLMHNLGKHLNSMERVEWLRKKLQDVHNFVALGAPLAPRDAGSQRPRKKEDNVLVESHEKSLGEADKADVNVLTKAKSQ |  | equally osteogenic; also recorded: strongly osteogenic | about 1 minute | no significant difference |  | needs the same amount of time to reduce the blood pressure |  | 43.2±5.8 | 0.9 ± 0.08

Source: patent publication US6541450B1, “Parathyroid hormone analogues for the treatment of osteoporosis” (National Research Council of Canada, priority 1994, dated 2003)
